Here are results for 2 compounds from patent publication US7071355B2, “Compounds as anti-inflammatory, immunomodulatory and anti-proliferatory agents” (4 SC AG, priority 2002, dated 2006).

The target of this experiment is human DHODH (Homo sapiens, UniProt Q02127). Nature of the experiment: Inhibition assay of DHODH activity. The experiment is classed as biochemical. The conditions noted are these: recombinant human DHODH; 50 μM decyclo ubichinone, 100 μM dihydroorotate, 60 μM 2,6-dichloroindophenol; pH 8.0, 30° C.

Structures are written as SMILES.

human DHODH, sequence (Q02127 whole entry): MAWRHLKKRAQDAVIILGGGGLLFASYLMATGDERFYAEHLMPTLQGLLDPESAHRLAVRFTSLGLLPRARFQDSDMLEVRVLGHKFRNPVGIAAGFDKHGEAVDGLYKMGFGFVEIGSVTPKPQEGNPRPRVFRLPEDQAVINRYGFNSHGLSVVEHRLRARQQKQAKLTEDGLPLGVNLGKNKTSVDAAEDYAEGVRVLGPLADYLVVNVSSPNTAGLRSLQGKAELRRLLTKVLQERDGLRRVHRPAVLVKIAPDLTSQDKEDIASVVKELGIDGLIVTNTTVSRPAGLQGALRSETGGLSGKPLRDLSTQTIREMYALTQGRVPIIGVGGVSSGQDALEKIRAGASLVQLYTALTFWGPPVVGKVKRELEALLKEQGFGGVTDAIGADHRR

As usually defined, the IC50 is the concentration that inhibits the measured activity by half. As for `O=C(O)C1=C(C(=O)Nc2c(F)cc(-c3ccccc3F)cc2F)CCC1O` (centres unmarked) [Example 12, 5-Hydroxy-2-(3,5,2′-trifluoro-biphenyl-4-ylcarbamoyl)-cyclopent-1-enecarboxylic acid], the IC50 was less than 1 µM.

Regarding `COc1cccc(-c2ccc(NC(=O)C3=C(C(=O)O)C(O)CC3)c(F)c2)c1` (centres unmarked) [Example 18, 2-(3-Fluoro-3′-methoxy-biphenyl-4-ylcarbamoyl)-5-hydroxy-cyclopent-1-enecarboxylic acid], the IC50 was less than 1 µM.
